Structures are written as SMILES. The source made the active and inactive calls. The rule behind the calls is not given here.

Sequence of Amyloid-beta precursor protein (Homo sapiens) (P05067 whole entry): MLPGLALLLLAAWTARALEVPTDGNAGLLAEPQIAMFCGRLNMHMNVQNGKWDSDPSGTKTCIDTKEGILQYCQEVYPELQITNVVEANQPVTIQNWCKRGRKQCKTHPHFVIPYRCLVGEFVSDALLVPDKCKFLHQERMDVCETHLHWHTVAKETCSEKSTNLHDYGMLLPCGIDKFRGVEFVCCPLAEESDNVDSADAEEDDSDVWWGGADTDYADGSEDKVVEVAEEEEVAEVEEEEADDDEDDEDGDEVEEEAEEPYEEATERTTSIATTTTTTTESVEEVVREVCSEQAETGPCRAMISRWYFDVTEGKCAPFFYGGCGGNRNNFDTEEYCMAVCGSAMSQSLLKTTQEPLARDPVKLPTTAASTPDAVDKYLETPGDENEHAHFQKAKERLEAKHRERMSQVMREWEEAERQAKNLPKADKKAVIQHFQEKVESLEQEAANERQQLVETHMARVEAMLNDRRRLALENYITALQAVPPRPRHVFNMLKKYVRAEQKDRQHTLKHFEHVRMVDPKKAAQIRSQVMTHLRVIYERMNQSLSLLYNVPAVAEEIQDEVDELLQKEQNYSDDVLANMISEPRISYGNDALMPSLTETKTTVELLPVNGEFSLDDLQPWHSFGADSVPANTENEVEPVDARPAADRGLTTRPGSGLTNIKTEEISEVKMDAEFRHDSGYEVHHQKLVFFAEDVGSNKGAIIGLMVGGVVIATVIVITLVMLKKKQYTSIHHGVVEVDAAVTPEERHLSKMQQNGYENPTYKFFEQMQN

One test addresses Amyloid-beta precursor protein (Homo sapiens) (UniProt P05067). In words: Inhibition of amyloid beta (1 to 42) (unknown origin)-induced cytotoxicity in human SH-SY5Y cells assessed as cell viability at 6.25 uM after 24 hrs by WST8 assay (reference value: 63.1 +/- 5.6%). Type of test: cell-based. In general terms: Formazan colour is commonly taken as a measure of viable cells.
In the case of `O=C(OC[C@H]1O[C@@H](OC(=O)c2cc(O)c(O)c(OC(=O)c3cc(O)c(O)c(O)c3)c2)[C@H](OC(=O)c2cc(O)c(O)c(OC(=O)c3cc(O)c(O)c(O)c3)c2)[C@@H](OC(=O)c2cc(O)c(O)c(OC(=O)c3cc(O)c(O)c(O)c3)c2)[C@@H]1OC(=O)c1cc(O)c(O)c(OC(=O)c2cc(O)c(O)c(O)c2)c1)c1cc(O)c(O)c(OC(=O)c2cc(O)c(O)c(O)c2)c1`, the Activity came to 78.8%.

The next test shares this target. In words: Inhibition of amyloid beta (1 to 42) (unknown origin)-induced cytotoxicity in human SH-SY5Y cells assessed as increase in cell viability at 12.5 uM after 24 hrs by WST8 assay. Type of test: cell-based.
For the compound `CC1(C)CC[C@]2(C(=O)O)CC[C@]3(C)C(=CC[C@@H]4[C@@]5(C)CC[C@H](O)C(C)(C)[C@@H]5CC[C@]43C)[C@@H]2C1`, the inhibition result is “inactive”.

As for `CC1(C)CC[C@]2(C(=O)O)[C@@H](O)C[C@]3(C)C(=CC[C@@H]4[C@@]5(C)CC[C@H](O)C(C)(C)[C@@H]5CC[C@]43C)[C@@H]2C1`, the inhibition result is “inactive”.

For `CC(=O)OC[C@]12[C@@H](OC(C)=O)CC(C)(C)C[C@H]1C1=CC[C@@H]3[C@@]4(C)CC[C@H](O)C(C)(C)[C@@H]4CC[C@@]3(C)[C@]1(C)C[C@@H]2OC(C)=O`, the inhibition result is “inactive”.

In the case of `CC1(C)C[C@H](O)[C@]2(CO)[C@@H](O)C[C@]3(C)C(=CC[C@@H]4[C@@]5(C)CC[C@H](O)C(C)(C)[C@@H]5CC[C@]43C)[C@@H]2C1`, the inhibition entry is “inactive”.

For the compound `O=C(OC[C@H]1O[C@@H](OC(=O)c2cc(O)c(O)c(OC(=O)c3cc(O)c(O)c(O)c3)c2)[C@H](OC(=O)c2cc(O)c(O)c(OC(=O)c3cc(O)c(O)c(O)c3)c2)[C@@H](OC(=O)c2cc(O)c(O)c(OC(=O)c3cc(O)c(O)c(O)c3)c2)[C@@H]1OC(=O)c1cc(O)c(O)c(OC(=O)c2cc(O)c(O)c(O)c2)c1)c1cc(O)c(O)c(OC(=O)c2cc(O)c(O)c(O)c2)c1`, the inhibition result is “inactive”.

Another test has the same target. In words: Inhibition of amyloid beta (1 to 42) (unknown origin)-induced cytotoxicity in human SH-SY5Y cells assessed as increase in cell viability at 50 uM after 24 hrs by WST8 assay. Type of test: cell-based.
Regarding `C[C@@H]1O[C@@H](OC(=O)[C@]23CCC(C)(C)C[C@H]2C2=CC[C@@H]4[C@@]5(C)CC[C@H](O[C@@H]6O[C@H](C(=O)O)[C@@H](O)[C@H](O)[C@H]6O[C@@H]6O[C@H](CO)[C@@H](O)[C@H](O)[C@H]6O[C@@H]6OC[C@@H](O)[C@H](O)[C@H]6O)C(C)(C)[C@@H]5CC[C@@]4(C)[C@]2(C)C[C@@H]3O)[C@H](O)[C@H](O)[C@H]1O`, the “protection from amyloid beta cytotoxicity (active/not active)” value (shortened to “protection … (active/not active)”) is “Active”.

As for `CC(=O)OC[C@]12[C@@H](OC(C)=O)CC(C)(C)C[C@H]1C1=CC[C@@H]3[C@@]4(C)CC[C@H](O[C@@H]5O[C@H](C(=O)O)[C@@H](O)[C@H](O)[C@H]5O[C@@H]5O[C@H](CO)[C@@H](O)[C@H](O)[C@H]5O[C@@H]5O[C@@H](C)[C@H](O)[C@@H](O)[C@H]5O)C(C)(C)[C@@H]4CC[C@@]3(C)[C@]1(C)C[C@@H]2OC(C)=O`, the “protection … (active/not active)” value was “inactive”.

As for `C[C@@H]1O[C@@H](O[C@H]2[C@H](O)[C@@H](C(=O)O)O[C@@H](O[C@H]3CC[C@]4(C)[C@H]5CC=C6[C@@H]7CC(C)(C)CC[C@]7(C(=O)O[C@@H]7O[C@H](CO)[C@@H](O)[C@H](O)[C@H]7O)CC[C@@]6(C)[C@]5(C)CC[C@H]4C3(C)C)[C@@H]2O[C@@H]2O[C@H](CO)[C@@H](O)[C@H](O)[C@H]2O)[C@H](O)[C@H](O)[C@H]1O`, the “protection … (active/not active)” value is “Active”.

For `CC1(C)CC[C@]2(C(=O)O[C@@H]3O[C@H](CO)[C@@H](O)[C@H](O)[C@H]3O)CC[C@]3(C)C(=CC[C@@H]4[C@@]5(C)CC[C@H](O[C@@H]6O[C@H](C(=O)O)[C@@H](O)[C@H](O)[C@H]6O[C@@H]6O[C@H](CO)[C@@H](O)[C@H](O)[C@H]6O[C@@H]6OC[C@@H](O)[C@H](O)[C@H]6O)C(C)(C)[C@@H]5CC[C@]43C)[C@@H]2C1`, the “protection … (active/not active)” value is “Active”.

Regarding `C[C@@H]1O[C@@H](OC(=O)[C@]23CCC(C)(C)C[C@H]2C2=CC[C@@H]4[C@@]5(C)CC[C@H](O[C@@H]6O[C@H](C(=O)O)[C@@H](O)[C@H](O[C@@H]7O[C@@H](C)[C@H](O)[C@@H](O)[C@H]7O)[C@H]6O[C@@H]6O[C@H](CO)[C@@H](O)[C@H](O)[C@H]6O)C(C)(C)[C@@H]5CC[C@@]4(C)[C@]2(C)C[C@@H]3O)[C@H](O)[C@H](O)[C@H]1O`, the “protection … (active/not active)” value was “Active”.

For the next test the target is unchanged. The experiment in a line: Inhibition of amyloid beta (1 to 42) (unknown origin)-induced cytotoxicity in human SH-SY5Y cells assessed as cell viability at 50 uM after 24 hrs by WST8 assay (reference value: 63.1 +/- 5.6%). Format: cell-based.
Turning to `CC(=O)OC[C@]12[C@@H](OC(C)=O)CC(C)(C)C[C@H]1C1=CC[C@@H]3[C@@]4(C)CC[C@H](O[C@@H]5O[C@H](C(=O)O)[C@@H](O)[C@H](O)[C@H]5O[C@@H]5O[C@H](CO)[C@@H](O)[C@H](O)[C@H]5O[C@@H]5OC[C@@H](O)[C@H](O)[C@H]5O)C(C)(C)[C@@H]4CC[C@@]3(C)[C@]1(C)C[C@@H]2OC(C)=O`, the Activity amounted to 83.7%.

Turning to `COC(=O)[C@H]1O[C@@H](O[C@H]2CC[C@]3(C)[C@H]4CC=C5[C@@H]6CC(C)(C)C[C@H](OC(C)=O)[C@]6(COC(C)=O)[C@@H](OC(C)=O)C[C@@]5(C)[C@]4(C)CC[C@H]3C2(C)C)[C@H](O[C@@H]2O[C@H](CO)[C@@H](O)[C@H](O)[C@H]2O[C@@H]2OC[C@@H](O)[C@H](O)[C@H]2O)[C@@H](O)[C@@H]1O`, the Activity came out at 84.3%.

As to `COC(=O)[C@H]1O[C@@H](O[C@H]2CC[C@]3(C)[C@H]4CC=C5[C@@H]6CC(C)(C)C[C@H](OC(C)=O)[C@]6(COC(C)=O)[C@@H](OC(C)=O)C[C@@]5(C)[C@]4(C)CC[C@H]3C2(C)C)[C@H](O[C@@H]2O[C@H](CO)[C@@H](O)[C@H](O)[C@H]2O)[C@@H](O[C@@H]2O[C@@H](C)[C@H](O)[C@@H](O)[C@H]2O)[C@@H]1O`, the Activity is 79.2%.

For the compound `CC(=O)OC[C@]12[C@@H](OC(C)=O)CC(C)(C)C[C@H]1C1=CC[C@@H]3[C@@]4(C)CC[C@H](O[C@@H]5O[C@H](C(=O)O)[C@@H](O)[C@H](O[C@@H]6O[C@@H](C)[C@H](O)[C@@H](O)[C@H]6O)[C@H]5O[C@@H]5O[C@H](CO)[C@@H](O)[C@H](O)[C@H]5O)C(C)(C)[C@@H]4CC[C@@]3(C)[C@]1(C)C[C@@H]2OC(C)=O`, the Activity worked out at 87.4%.

The values are drawn from ChEMBL document CHEMBL4020753, “Inhibition of amyloid β aggregation and protective effect on SH-SY5Y cells by triterpenoid saponins from the cactus Polaskia chichipe” (Bioorg Med Chem, 2017).
